Relative viability data for 1 cell line are collected here from the supplement of paper PMC10307832.

Holding throughout (assay): relative viability (nuclei count vs DMSO), 5 days (fraction); higher = more cells survive
Compound in test [1]: O=C(Nc1cc(C(F)(F)F)cc(C(F)(F)F)c1)c1cc(Cl)ccc1O [IMD-0354] + COc1cc2c(Oc3ccc(NC(=O)C4(C(=O)Nc5ccc(F)cc5)CC4)cc3F)ccnc2cc1OCCCN1CCOCC1 [Foretinib] (partner 0.25 µM)
The method in brief: (§1)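 A single step with final 0.05% Triton X-100, 1% formaldehyde and 1 ug/ml Hoechst fixed the cells and stained nuclei 5 days after treatment. Lung cancer cell lines in 1536-well plates had been treated by pin tool the day after seeding with one drug alone or a fixed anchor-drug dose plus five library-drug doses (not always all listed) in √10 steps, and nuclei were counted on 4× images. Relative viability is the ratio of nuclei in treated wells to nuclei in vehicle wells, taken as the median of duplicate plates.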

Compound in test [2]: Cc1cnc(CNC(=O)c2c(=O)c3ccc(N4CCCN(C)CC4)nc3n3c2sc2ccccc23)cn1 [CX-5461] + COc1cccc2cc(-c3nc([C@H]4CC[C@H](C(=O)O)CC4)n4ncnc(N)c34)[nH]c12 [OSI-027] (partner 0.5 µM)
The essentials:
as §1

Compound in test [3]: Cc1cnc(CNC(=O)c2c(=O)c3ccc(N4CCCN(C)CC4)nc3n3c2sc2ccccc23)cn1 [CX-5461] + N=C(N)NC(=N)NCCc1ccccc1 [Phenformin] (partner 250 µM)
The essentials: as §1

Compound in test [4]: Cc1cnc(CNC(=O)c2c(=O)c3ccc(N4CCCN(C)CC4)nc3n3c2sc2ccccc23)cn1 [CX-5461] + CC(C)C[C@H](NC(=O)[C@H](Cc1ccccc1)NC(=O)c1cnccn1)B(O)O [Bortezomib] (partner 0.002 µM)
The essentials: as §1

As for UMC-11, the relative viability in test [1] (first compound 0.04 µM) worked out at 1.07; in test [1] (first compound 0.1265 µM), 1.03; in test [1] (first compound 0.4 µM), 0.431; in test [1] (first compound 1.265 µM), 0.235; in test [1] (first compound 4 µM) it was 0.235; in test [2] (first compound 0.01 µM) it was 0.542. Further, the relative viability in test [2] (first compound 0.03162 µM) amounted to 0.431; in test [2] (first compound 0.1 µM), 0.389; in test [2] (first compound 0.3162 µM) it was 0.475; in test [2] (first compound 1 µM), 0.274; in test [3] (first compound 0.01 µM), 0.323; in test [3] (first compound 0.03162 µM), 0.298. The relative viability came out at 0.246 in test [3] (first compound 0.1 µM); 0.293 in test [3] (first compound 0.3162 µM); 0.217 in test [3] (first compound 1 µM); 1.01 in test [4] (first compound 0.01 µM); 0.707 in test [4] (first compound 0.03162 µM); 0.514 in test [4] (first compound 0.1 µM). Moreover, the relative viability in test [4] (first compound 0.3162 µM) is 0.797; in test [4] (first compound 1 µM) it was 0.198.
